One test deals with PDE4B (Homo sapiens, UniProt Q07343). Nature of the test: In-vitro assay for PDE4 enzymes, real-time enzyme-coupled spectrophotometric assay, PDE4B Activity (Table 10). The class given is biochemical. To be noted: human PDE4B (hPDE4B), enzyme-coupled spectrophotometric assay; read-out: PDE4B Activity, hPDE4B.
The next test has as its target PDE4 (Homo sapiens, UniProt Q08499). Nature of the test: In-vitro assay for PDE4 enzymes, real-time enzyme-coupled spectrophotometric assay (Table 9). The class given is biochemical. As to conditions: human PDE4D; activity class, Table 9; read-out: hPDE4D.

Counter-ions that a name gives are not always drawn.

PDE4B, sequence (Q07343 whole entry): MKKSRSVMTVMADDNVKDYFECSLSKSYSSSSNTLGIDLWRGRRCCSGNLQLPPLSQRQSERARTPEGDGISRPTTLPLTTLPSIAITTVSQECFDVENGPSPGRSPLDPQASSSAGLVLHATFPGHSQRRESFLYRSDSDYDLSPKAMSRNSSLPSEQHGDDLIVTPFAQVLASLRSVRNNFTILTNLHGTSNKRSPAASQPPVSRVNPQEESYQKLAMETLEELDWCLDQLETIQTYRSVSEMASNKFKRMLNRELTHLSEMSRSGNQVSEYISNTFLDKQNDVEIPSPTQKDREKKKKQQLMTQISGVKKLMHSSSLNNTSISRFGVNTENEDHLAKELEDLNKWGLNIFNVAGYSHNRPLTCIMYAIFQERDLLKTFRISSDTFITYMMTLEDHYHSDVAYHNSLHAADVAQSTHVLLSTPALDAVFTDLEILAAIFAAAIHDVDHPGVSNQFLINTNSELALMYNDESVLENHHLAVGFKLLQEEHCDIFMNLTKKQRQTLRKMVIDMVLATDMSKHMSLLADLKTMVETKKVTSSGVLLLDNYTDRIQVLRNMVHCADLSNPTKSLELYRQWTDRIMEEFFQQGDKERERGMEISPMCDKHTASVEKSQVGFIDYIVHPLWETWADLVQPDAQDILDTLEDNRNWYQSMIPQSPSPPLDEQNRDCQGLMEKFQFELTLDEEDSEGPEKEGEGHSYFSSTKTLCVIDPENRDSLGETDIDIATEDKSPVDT
PDE4, sequence (Q08499 whole entry): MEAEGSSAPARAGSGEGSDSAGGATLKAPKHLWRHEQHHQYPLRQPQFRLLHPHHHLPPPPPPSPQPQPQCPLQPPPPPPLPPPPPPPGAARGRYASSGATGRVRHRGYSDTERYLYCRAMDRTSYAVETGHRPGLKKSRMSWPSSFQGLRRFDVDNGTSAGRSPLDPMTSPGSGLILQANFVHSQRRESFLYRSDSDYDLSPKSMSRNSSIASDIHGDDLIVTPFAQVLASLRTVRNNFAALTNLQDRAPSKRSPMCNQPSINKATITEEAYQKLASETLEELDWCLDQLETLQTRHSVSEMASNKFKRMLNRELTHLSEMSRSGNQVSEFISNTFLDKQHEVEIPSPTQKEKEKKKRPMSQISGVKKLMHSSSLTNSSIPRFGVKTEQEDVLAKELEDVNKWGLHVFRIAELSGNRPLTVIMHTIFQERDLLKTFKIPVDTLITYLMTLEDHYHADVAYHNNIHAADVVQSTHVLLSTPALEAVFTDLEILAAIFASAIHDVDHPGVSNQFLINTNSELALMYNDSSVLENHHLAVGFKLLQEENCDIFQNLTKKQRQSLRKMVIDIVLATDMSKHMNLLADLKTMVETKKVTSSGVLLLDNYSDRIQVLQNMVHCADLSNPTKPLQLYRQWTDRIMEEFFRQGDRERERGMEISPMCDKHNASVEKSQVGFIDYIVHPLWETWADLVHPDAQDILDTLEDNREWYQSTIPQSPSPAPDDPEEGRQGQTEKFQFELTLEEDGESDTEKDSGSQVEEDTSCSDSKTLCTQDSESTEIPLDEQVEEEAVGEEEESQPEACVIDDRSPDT

For `O=[N+]([O-])c1cccc(-c2cc(Cc3ccc(F)cc3)ccc2O)c1` [P-494, 5-(4-Fluoro-benzyl)-3′-nitro-biphenyl-2-ol], the IC50 at PDE4B and on PDE4 was less than 5 µM each time.
`Oc1ccc(Cc2ccc(F)cc2)c(F)c1-c1cccc(Br)c1` [P-496]: the IC50 at PDE4B and on PDE4 was less than 5 µM throughout.
For the compound `O=[N+]([O-])c1cccc(-c2cc(Cc3ccc(Cl)nc3)ccc2O)c1` [P-500], the IC50 at PDE4B was 5 to 20 µM; on PDE4, less than 5 µM.
On to `O=C1CCCN1Cc1ccc(O)c(-c2cccc([N+](=O)[O-])c2)c1` [P-503, 1-(6-Hydroxy-3′-nitro-biphenyl-3-ylmethyl)-pyrrolidin-2-one], for which the IC50 on PDE4B and at PDE4 was 5 to 20 µM throughout.
For the compound `O=C1CCCN1Cc1ccc(O)c(-c2cccc([N+](=O)[O-])c2)c1O` [P-504, 1-(2,6-Dihydroxy-3′-nitro-biphenyl-3-ylmethyl)-pyrrolidin-2-one], the IC50 at PDE4B is 5 to 20 µM; on PDE4, less than 5 µM.
The corresponding values for `NC(=O)Nc1ccc(Cc2ccc(O)c(-c3cccc([N+](=O)[O-])c3)c2F)cc1` [P-508] are 5 to 20 µM and less than 5 µM.
The matching figures for `CCNC(=O)Nc1ccc(Cc2ccc(OC)c(-c3cccc(-c4nnn[nH]4)c3)c2F)cn1` [P-513, 1-Ethyl-3-{5-[2-fluoro-6-methoxy-3′-(1H-tetrazol-5-yl)-biphenyl-3-ylmethyl]-pyridin-2-yl}-urea]: 21 to 40 µM and 5 to 20 µM.
The matching figures for `COc1ccc(Cc2ccnc(N3CCNCC3)c2)c(F)c1-c1cccc(Cl)c1` [P-515, 1-[4-(3′-Chloro-2-fluoro-6-methoxy-biphenyl-3-ylmethyl)-pyridin-2-yl]-piperazine]: less than 5 µM and less than 5 µM.
For the compound `[2H]C([2H])([2H])Oc1ccc(Cc2ccc(NC(N)=O)cc2)cc1-c1cccc(Cl)c1` [P-516], the IC50 on PDE4B and at PDE4 was less than 5 µM throughout.
Take `COc1ccc(Cc2ccnc(N3CCN(C(N)=O)CC3)c2)c(F)c1-c1cccc(Cl)c1` [P-518, 4-[4-(3′-Chloro-2-fluoro-6-methoxy-biphenyl-3-ylmethyl)-pyridin-2-yl]-piperazine-1-carboxylic acid amide]: the IC50 on PDE4B and on PDE4 was less than 5 µM throughout.
As for `CCNC(=O)N1CCN(c2cc(Cc3ccc(OC)c(-c4cccc(Cl)c4)c3F)ccn2)CC1` [P-519, 4-[4-(3′-Chloro-2-fluoro-6-methoxy-biphenyl-3-ylmethyl)-pyridin-2-yl]-piperazine-1-carboxylic acid ethylamide], the IC50 at PDE4B and on PDE4 was less than 5 µM in each case.
Turning to `COc1ccc(Cc2ccc(CNC(=O)C(N)=O)nc2)c(F)c1-c1cccc(Cl)c1` [P-521, N-[5-(3′-Chloro-2-fluoro-6-methoxy-biphenyl-3-ylmethyl)-pyridin-2-ylmethyl]-oxalamide], the IC50 on PDE4B and on PDE4 was less than 5 µM in each case.
For `COc1ccc(Cc2ccc(OC[C@H]3CCCN3)nc2)c(F)c1-c1cccc(Cl)c1` [P-523, 5-(3′-Chloro-2-fluoro-6-methoxy-biphenyl-3-ylmethyl)-2-((R)-1-pyrrolidin-2-ylmethoxy)-pyridine], the IC50 at PDE4B and at PDE4 was less than 5 µM each time.
Consider `COc1ccc(-n2cnc3ccc(N)cc32)cc1-c1cccc(Cl)c1` [P-524, 3-(3′-Chloro-6-methoxy-biphenyl-3-yl)-3H-benzoimidazol-5-ylamine], for which the IC50 at PDE4B and at PDE4 was less than 5 µM throughout.
With `COc1ccc(Cn2cc(-c3ccccn3)cn2)c(F)c1-c1cccc(Cl)c1` [P-527, 2-[1-(3′-Chloro-2-fluoro-6-methoxy-biphenyl-3-ylmethyl)-1H-pyrazol-4-yl]-pyridine], the IC50 on PDE4B is 5 to 20 µM; at PDE4, less than 5 µM.
The matching figures for `[2H]C([2H])(c1ccc(NC(N)=O)cc1)c1ccc(OC)c(-c2cccc(Cl)c2)c1F` [P-532, {4-[(3′-Chloro-2-fluoro-6-methoxy-biphenyl-3-yl)-bisduetero-methyl]-phenyl}-urea]: less than 5 µM and less than 5 µM.
As for `CCNC(=O)N1CCC[C@@H]1COc1ccc(Cc2ccc(OC)c(-c3cccc(Cl)c3)c2F)cn1` [P-533, (R)-2-[5-(3′-Chloro-2-fluoro-6-methoxy-biphenyl-3-ylmethyl)-pyridin-2-yloxymethyl]-pyrrolidine-1-carboxylic acid ethylamide], the IC50 at PDE4B and at PDE4 was less than 5 µM each time.
Take `COc1ccc(Cn2cnc(C(N)=O)c2)c(F)c1-c1cccc(Cl)c1` [P-534, 1-(3′-Chloro-2-fluoro-6-methoxy-biphenyl-3-ylmethyl)-1H-imidazole-4-carboxylic acid amide]: the IC50 at PDE4B and on PDE4 was less than 5 µM throughout.
For `COc1ccc(Cn2cncc2C(N)=O)c(F)c1-c1cccc(Cl)c1` [P-535, 3-(3′-Chloro-2-fluoro-6-methoxy-biphenyl-3-ylmethyl)-3H-imidazole-4-carboxylic acid amide], the IC50 at PDE4B and at PDE4 was less than 5 µM each time.
On to `COc1ccc(Cn2cnc([N+](=O)[O-])c2)c(F)c1-c1cccc(Cl)c1` [P-536, 1-(3′-Chloro-2-fluoro-6-methoxy-biphenyl-3-ylmethyl)-4-nitro-1H-imidazole], for which the IC50 at PDE4B and on PDE4 was less than 5 µM in each case.
Turning to `[2H]C(O)(c1ccc(NC(N)=O)cc1)c1ccc(OC)c(-c2cccc(Cl)c2)c1F` (centres unmarked) [P-539, {4-[(3′-chloro-2-fluoro-6-methoxy-biphenyl-3-yl)-hydroxy-deutero-methyl]-phenyl}-urea], the IC50 at PDE4B was 21 to 40 µM; at PDE4, less than 5 µM.
The matching figures for `COc1ccc(Sc2ccc(NC(N)=O)cc2)cc1-c1cccc(Cl)c1` [P-540, [4-(3′-Chloro-6-methoxy-biphenyl-3-ylsulfanyl)-phenyl]-urea]: less than 5 µM and less than 5 µM.
For the compound `CCOc1ccc(Cc2ccc(NC(N)=O)cc2)cc1-c1cccc(Cl)c1` [P-541, [4-(3′-Chloro-6-ethoxy-biphenyl-3-ylmethyl)-phenyl]-urea], the IC50 on PDE4B and on PDE4 was less than 5 µM in each case.
`NCCOc1ccc(Cc2ccc(NC(N)=O)cc2)cc1-c1cccc(Cl)c1` [P-542, {4-[6-(2-Amino-ethoxy)-3′-chloro-biphenyl-3-ylmethyl]-phenyl}-urea]: the IC50 on PDE4B lay in the range of 21 to 40 µM; at PDE4 it was 20 to 40 µM.
The corresponding values for `COc1ccc(Cn2cc(-c3cnccn3)cn2)c(F)c1-c1cccc(Cl)c1` [P-545, 2-[1-(3′-Chloro-2-fluoro-6-methoxy-biphenyl-3-ylmethyl)-1H-pyrazol-4-yl]-pyrazine] are less than 5 µM and less than 5 µM.
The corresponding values for `[2H]C([2H])(c1ccc(NC(N)=O)cc1)c1ccc(OC)c(-c2cccc(Cl)c2)c1` [P-547, {4-[Bisduetero-(3′-chloro-6-methoxy-biphenyl-3-yl)-methyl]-phenyl}-urea] are less than 5 µM and less than 5 µM.
Turning to `COc1ccc(Cn2ccnc2-c2cccnc2)c(F)c1-c1cccc(Cl)c1` [P-549, 3-[1-(3′-Chloro-2-fluoro-6-methoxy-biphenyl-3-ylmethyl)-1H-imidazol-2-yl]-pyridine hydrochloride salt], the figures for the IC50 at PDE4B and on PDE4 were 5 to 20 µM and less than 5 µM, respectively.
The corresponding values for `COc1c(F)cc(Cc2ccc(NC(N)=O)cc2)cc1-c1cccc(Cl)c1` [P-550, [4-(3′-chloro-5-fluoro-6-methoxy-biphenyl-3-ylmethyl)-phenyl]-urea] are less than 5 µM and less than 5 µM.
Take `NC(=O)Nc1ccc(Cc2ccc(OC3CSC3)c(-c3cccc(Cl)c3)c2)cc1` [P-553, {4-[3′-Chloro-6-(thietan-3-yloxy)-biphenyl-3-ylmethyl]-phenyl}-urea]: the IC50 on PDE4B and at PDE4 was less than 5 µM each time.
As to `NC(=O)Nc1ccc(Cc2ccc(OC3COC3)c(-c3cccc(Cl)c3)c2)cc1` [P-555, {4-[3′-Chloro-6-(oxetan-3-yloxy)-biphenyl-3-ylmethyl]-phenyl}-urea], the IC50 at PDE4B and at PDE4 was less than 5 µM in each case.
Take `COc1ccc(Cn2ccnc2-c2cccs2)c(F)c1-c1cccc(Cl)c1` [P-559, 1-(3′-Chloro-2-fluoro-6-methoxy-biphenyl-3-ylmethyl)-2-thiophen-2-yl-1H-imidazole hydrochloride salt]: the IC50 at PDE4B and on PDE4 was less than 5 µM throughout.
Consider `Nc1ccc(Cc2ccc(OC3COC3)c(-c3cccc(Cl)c3)c2)cc1` [P-562, 4-[3′-Chloro-6-(oxetan-3-yloxy)-biphenyl-3-ylmethyl]-phenylamine], for which the IC50 at PDE4B and on PDE4 was less than 5 µM each time.
For the compound `NC(=O)Nc1ccc(Cc2ccc(OC[C@@H]3CCCN3)c(-c3cccc(Cl)c3)c2)cc1` [P-563, {4-[3′-Chloro-6-((S)-1-pyrrolidin-2-ylmethoxy)-biphenyl-3-ylmethyl]-phenyl}-urea], the values for the IC50 at PDE4B and at PDE4 were 5 to 20 µM and less than 5 µM, respectively.
As to `COc1ccc(C2(c3ccc(F)cc3)CCN(C)CC2)cc1-c1cccc(Cl)c1` [P-564, 4-(3′-Chloro-6-methoxy-biphenyl-3-yl)-4-(4-fluoro-phenyl)-1-methyl-piperidine], the IC50 on PDE4B fell in the range of 21 to 40 µM; at PDE4, 5 to 20 µM.
The matching figures for `CN1CC[C@@H](Oc2ccc(Cc3ccc(NC(N)=O)cc3)cc2-c2cccc(Cl)c2)C1` [P-565, {4-[3′-Chloro-6-((R)-1-methyl-pyrrolidin-3-yloxy)-biphenyl-3-ylmethyl]-phenyl}-urea]: 21 to 40 µM and 5 to 20 µM.
Consider `COc1ccc(Cc2ccc(NC(=O)NC3CCCO3)cc2)cc1-c1cccc(Cl)c1` (centres unmarked) [P-566, 1-[4-(3′-Chloro-6-methoxy-biphenyl-3-ylmethyl)-phenyl]-3-(tetrahydro-furan-2-yl)-urea], for which the IC50 on PDE4B and on PDE4 was less than 5 µM in each case.
Turning to `COc1ccc(Cc2ccc(CO)nc2)cc1-c1cccc(Cl)c1` [P-567, [5-(3′-Chloro-6-methoxy-biphenyl-3-ylmethyl)-pyridin-2-yl]-methanol], the IC50 at PDE4B and at PDE4 was less than 5 µM in each case.
